{"source": "paper PMC4911353", "about": "“Pharmacologic Inhibition of Host Phosphodiesterase-4 Improves Isoniazid-Mediated Clearance of Mycobacterium tuberculosis” (Frontiers in Immunology, 2016)", "key": {"[1]": {"tested_on": "Mycobacterium tuberculosis CDC1551", "type": "in vivo", "conditions": "in vivo, 50 mg/kg"}, "Pde4": {"tested_on": "Pde4", "assay": "qPCR of host Pde4 gene expression in Mtb-infected mouse lungs", "type": "in vivo, mice", "conditions": "14 days of treatment (28 days postinfection)", "procedure": "Total lung RNA (200 ng) was reverse-transcribed using Sprint RT kit (Clontech, CA, USA); 10 ng of cDNA were used for quantitative real-time PCR (qPCR), with Brilliant II SYBR master mix (Agilent Technologies, CA, USA) and gene-specific primers in a Stratagene Mx3005P instrument (Agilent Technologies, CA, USA). ROX was included in each reaction as an internal control. The qPCR assay was performed using four mouse samples in duplicate per group; the data were analyzed using MxPro Software (Agilent Technologies, CA, USA). Transcript levels of Gapdh were used as a reference against the test genes. Fold change in gene expression was calculated using the formula 2^−ΔΔCt, where ΔCt is the difference in threshold cycle (Ct) between the target gene and Gapdh; and ΔΔCt is the […] between untreated and CC-11050-treated samples. Primers were designed based on nucleotide sequences obtained from PrimerBank.^3"}}, "data": [{"compound": "CCOc1cc([C@@H](CS(C)(=O)=O)N2Cc3cccc(NC(=O)C4CC4)c3C2=O)ccc1OC", "note": "[CC-11050, N-[2-[(1S)-1-(3-ethoxy-4-methoxyphenyl)-2-(methylsulfonyl)ethyl]-2,3-dihydro-3-oxo-1H-isoindol-4-yl]-(9Cl) cyclopropanecarboxamide]", "values": [{"measurement": "Difference in number of lung CFUs versus untreated mice", "setting": "[1]", "result": "No significant difference"}, {"measurement": "Lung bacillary load", "setting": "[1]; po", "result": "about 5.5 log10"}, {"measurement": "Pde4A expression in lungs versus Mtb-infected untreated", "setting": "Pde4", "result": "No significant change"}, {"measurement": "Pde4C expression in lungs versus Mtb-infected untreated", "setting": "Pde4", "result": "No significant change"}, {"measurement": "Pde4D expression in lungs versus Mtb-infected untreated", "setting": "Pde4; 50 mg/kg, P = 0.0037", "result": "significantly reduced"}, {"measurement": "Pde4Bi3 (Pde4B isoform 3) expression in lungs versus Mtb-infected untreated", "setting": "Pde4; 50 mg/kg, P = 0.015", "result": "significantly reduced"}]}]}
